We go through 19 compounds from patent US5317021A, “3-mercapto-glutamic acid derivatives” (ONO Pharmaceutical Co., Ltd., priority 1988, dated 1994).

Molecules are shown by their SMILES. Counter-ions that a name gives are not always drawn.

The target of one series is T1, enkephalinase (Mus musculus, UniProt Q61391).
T1 construct: striata obtained from ddY male mice; from tissue; host or cells: striata of ddY male mice (washed 20000 g membrane pellet, not purified)
T1 sequence (Q61391 1-750): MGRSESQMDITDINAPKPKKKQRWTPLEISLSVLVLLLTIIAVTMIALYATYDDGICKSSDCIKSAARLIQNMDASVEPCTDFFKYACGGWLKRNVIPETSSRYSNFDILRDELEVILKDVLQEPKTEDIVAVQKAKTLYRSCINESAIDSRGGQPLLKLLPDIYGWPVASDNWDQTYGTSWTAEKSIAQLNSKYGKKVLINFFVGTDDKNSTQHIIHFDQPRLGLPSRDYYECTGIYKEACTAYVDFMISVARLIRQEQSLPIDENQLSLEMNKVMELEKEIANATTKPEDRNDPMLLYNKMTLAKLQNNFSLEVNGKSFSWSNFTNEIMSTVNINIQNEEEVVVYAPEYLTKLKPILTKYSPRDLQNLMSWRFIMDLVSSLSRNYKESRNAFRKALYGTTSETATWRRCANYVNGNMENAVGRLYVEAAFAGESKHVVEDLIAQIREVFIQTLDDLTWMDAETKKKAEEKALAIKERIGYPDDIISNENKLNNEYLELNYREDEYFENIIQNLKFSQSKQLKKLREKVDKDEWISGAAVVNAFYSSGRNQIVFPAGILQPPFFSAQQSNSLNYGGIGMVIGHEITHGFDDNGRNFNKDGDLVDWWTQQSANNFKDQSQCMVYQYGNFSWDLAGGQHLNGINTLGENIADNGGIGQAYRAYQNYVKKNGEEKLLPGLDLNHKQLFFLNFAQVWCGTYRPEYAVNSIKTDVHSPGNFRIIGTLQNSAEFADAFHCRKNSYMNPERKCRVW
Nature of the series: Inhibitory effect on enkephalinase. The series is classed as biochemical, ddY male mice. Particulars: substrate Suc-Ala-Ala-Phe-AMC 10^-4 M, 37° C., 60 minutes, mouse striata enzyme. As to the method: That is, to striata obtained from ddY male mice (weighing 28~30 g), Tris hydrochloric acid buffer solution (referred to "Tris buffer" hereafter) was added. The mixture was homogenised and centrifuged (1000 g×5 minites). The supernatant obtained was further centrifuged (20000 g×1 minutes). The resulting pellet was washed with cold Tris buffer and resuspended in a fresh Tris buffer to use as enzyme source of enkephalinase.
Incubation at 37° C. for 60 minutes was started by adding thereto […] of enzyme solution (×30 dilution of the above enzyme source) and 50 μl of a substrate solution containing succinyl-alanyl-alanyl-phenylalanyl (7-amido-4-methyl)coumarin (i.e. Suc-Ala-Ala-Phe-AMC, final concentration: 10^-4 M) dissolved in 50 mM HEPES/NaOH buffer (pH 7.4). The reaction was stopped by the addition of thiorphan (10^-6 M) and by heating the samples at 95° C. for 15 minutes. […] Blanks values were obtained by the same procedure as above described by using thiorphan (10^-6 M) instead of the test compound.

For series [1], the system named is bradykinin-induced biting-like response. As to the kind of experiment: Inhibitory effect on bradykinin-induced biting-like response. The series is classed as in vivo, male Spraque-Dawley rats. The settings on record: for Number of rats which did not show the biting-like response, 30 minutes after p.o. / Number of rats which did not show the biting-like response, 60 minutes after p.o. / Number of rats which did not show the biting-like response, 90 minutes after p.o. / Number of rats which did not show the biting-like response, 120 minutes after p.o.: 100 mg/kg p.o., number of rats 8; for Number of rats which did not show the biting-like response, 10 minutes after i.p. / Number of rats which did not show the biting-like response, 40 minutes after i.p. / Number of rats which did not show the biting-like response, 70 minutes after i.p. / Number of rats which did not show the biting-like response, 100 minutes after i.p.: 10 mg/kg i.p., number of rats 5 (Example 1), 8 (Example 12(5)). As to the method: The experiment was carried out according to the method as described in Journal of Pharmacological Methods, Z, 271 (1982). That is, male Spraque-Dawley rats (weighing 200~300 g) were used. Implantation of the bradykinin (0.63~1.25 μg in 0.5~1.0 μl of distilled water) - filled cannula onto the tooth pulp and the fixation of it on the lower incisor surfaces were carried out under ethyl ether anesthesia. A micro-application of bradykinin onto the tooth pulp produced biting-like response and some other aversive behaviors such as jumping, struggling, rubbing, scratching, escape, head-jerk and body-jerk within 1 minute.
The test compounds suspended in 0.5% carboxymethyl cellulose solution were administered either intraperitoneally or orally. After regular intervals bradykinin was administered.

Series [2] can be described thus: acute toxicity (LD50), intraperitoneal injection in mice. The settings on record: mouse, in vivo, ip.

Usually IC50 stands for the midpoint of a concentration-inhibition curve. A high value points to a need for much substance. With `COC(=O)C[C@H](NC(=O)C(CS)Cc1ccccc1)C(=O)Nc1ccc2c(c1)C(c1ccccc1)=NCCN2C` (stereo partly drawn) [Example 4, N-(3-mercapto-2RS-benzylpropionyl)-L-aspartic acid α-(2,3-dihydro-1-methyl-5-phenyl-1H-1,4-benzodiazepin-7yl)amide β-methyl ester], the IC50 against enkephalinase is 150 nM. In other words, the sub-micromolar range. Same read-out and setting: next, `Cc1ccc(CC(CS)C(=O)N[C@@H](CCC(=O)O)C(=O)Nc2ccccc2)cc1` (stereo partly drawn) [1(3), N-[3-mercapto-2RS-(4-methylbenzyl)-propionyl]-α-anilino-L-glutamic acid]: 71 nM. At enkephalinase, `O=C(O)CC[C@H](NC(=O)C(CS)Cc1ccccc1)C(=O)Nc1cccc2ccccc12` (stereo partly drawn) [2(7), N-(3-mercapto-2RS-benzylpropionyl)-L-glutamic acid α-(1-naphthyl)amide] gave an IC50 of 350 nM.

The compound `CN(C)c1ccc(NC(=O)C[C@H](NC(=O)C(CS)Cc2ccccc2)C(=O)O)cc1` (stereo partly drawn) [12(7), N-(3-mercapto-2RS-benzylpropionyl)-β-[4-(N,N-dimethylamino)anilino]-L-aspartic acid] returned an IC50 at enkephalinase of 24 nM.

Turning to `O=C(CC[C@H](NC(=O)C(CS)Cc1ccccc1)C(=O)O)Nc1ccccc1` (stereo partly drawn) [Example 11, N-(3-mercapto-2RS-benzylpropionyl)-γ-anilino-L-glutamic acid α-sodium salt], the IC50 against enkephalinase was determined as 68 nM. As a reminder, the LD50 is the dose at which mortality reaches 50%. Read a high LD50 as lower toxicity. With `O=C(O)CC[C@H](NC(=O)[C@@H](CSC1OC(=O)c2ccccc21)Cc1ccccc1)C(=O)Nc1ccccc1` (stereo partly drawn) [Example 16, N-[3-(phthalid-3yl)thio-2S-benzylpropionyl]-α-anilino-L-glutamic acid], in series [1], the “Number of rats which did not show the biting-like response, 30 minutes after p.o.” value stood at 3; the “Number of rats which did not show the biting-like response, 60 minutes after p.o.” value is listed as 6; the “Number of rats which did not show the biting-like response, 90 minutes after p.o.” value is listed as 2; the “Number of rats which did not show the biting-like response, 120 minutes after p.o.” value worked out at 0. In series [2], this compound displayed an LD50 of 500 to 1000 mg/kg. Take `O=C(O)CC[C@H](NC(=O)C(CS)Cc1ccccc1)C(=O)Nc1ccc(Cl)cn1` (stereo partly drawn) [3(4), N-(3-mercapto-2RS-benzylpropionyl)-L-glutamic acid α-(5-chloropyridin-2-yl)amide]: the IC50 on enkephalinase is 35 nM. In other words, the double-digit nanomolar range. In turn, `NS(=O)(=O)c1ccc(NC(=O)[C@H](CCC(=O)O)NC(=O)C(CS)Cc2ccccc2)cc1` (stereo partly drawn) [3(8), N-(3-mercapto-2RS-benzylpropionyl)-α-(4-sulfamoylanilino)-L-glutamic acid] yielded an IC50 on enkephalinase of 23 nM. In the case of `O=C(O)CC[C@H](NC(=O)[C@@H](CSC(=O)C(c1ccccc1)c1ccccc1)Cc1ccccc1)C(=O)Nc1ccccc1` [13(5), N-(3-diphenylacetylthio-2S-benzylpropionyl)-α-anilino-L-glutamic acid], in series [1], the “Number of rats which did not show the biting-like response, 30 minutes after p.o.” value stood at 1; the “Number of rats which did not show the biting-like response, 60 minutes after p.o.” value was found to be 7; the “Number of rats which did not show the biting-like response, 90 minutes after p.o.” value came to 1; the “Number of rats which did not show the biting-like response, 120 minutes after p.o.” value is 1. Regarding `O=C(O)CC[C@H](NC(=O)C(CS)CC1CCCCC1)C(=O)Nc1ccccc1` (stereo partly drawn) [1(1), N-(3-mercapto-2RS-cyclohexylmethyl-propionyl)-α-anilino-L-glutamic acid], half-maximal inhibition against enkephalinase (IC50) required 400 nM. In other words, the sub-micromolar range. The same measure, in the same setting: next, `O=C(O)CC[C@H](NC(=O)C(CS)Cc1ccccc1)C(=O)Nc1nc2ccccc2s1` (stereo partly drawn) [2(10), N-(3-mercapto-2RS-benzylpropionyl)-L-glutamic acid α-(2-benzthiazolyl) amide]: 44 nM. Same read-out and setting: next, `O=C(C[C@H](NC(=O)C(CS)Cc1ccccc1)C(=O)O)Nc1ccc(C(F)(F)F)cc1` (stereo partly drawn) [12(8), N-(3-mercapto-2RS-benzylpropionyl)-β-(4-trifluoromethylanilino)-L-aspartic acid]: 21 nM; `O=C(O)CC[C@H](NC(=O)C(CS)Cc1ccccc1)C(=O)Nc1ccc(C(=O)O)cc1` (stereo partly drawn) [3(2), N-(3-mercapto-2RS-benzylpropionyl)-α-(4-carboxyanilino)-L-glutamic acid]: 3.6 nM. Turning to `O=C(O)CC[C@H](NC(=O)C(CS)Cc1ccccc1)C(=O)Nc1ccccc1` (stereo partly drawn) [Example 1, N-(3-mercapto-2RS-benzylpropionyl)-α-anilino-L-glutamic acid], inhibition at enkephalinase was half-maximal at 21 nM (IC50). Besides, in series [1], the “Number of rats which did not show the biting-like response, 10 minutes after i.p.” value was found to be 4; the “Number of rats which did not show the biting-like response, 40 minutes after i.p.” value worked out at 4; the “Number of rats which did not show the biting-like response, 70 minutes after i.p.” value is listed as 3; the “Number of rats which did not show the biting-like response, 100 minutes after i.p.” value came to 1.

With `COc1ccc(NC(=O)[C@H](CC(=O)O)NC(=O)C(CS)Cc2ccccc2)cc1` (single isomer, unassigned) [8(4), N-(3-mercapto-2RS-benzylpropionyl)-α-(4-methoxyanilino)-L-aspartic acid], at enkephalinase, the IC50 is 50 nM. `COc1ccc(CC(CS)C(=O)N[C@@H](CCC(=O)O)C(=O)Nc2ccccc2)cc1` (stereo partly drawn) [1(2), N-[3-mercapto-2RS-(4-methoxybenzyl)-propionyl]-α-anilino-L-glutamic acid] had an IC50 on enkephalinase of 51 nM.

Compound `O=C(C[C@H](NC(=O)C(CS)Cc1ccccc1)C(=O)O)Nc1ccccc1` (stereo partly drawn) [Example 12, N-(3-mercapto-2RS-benzylpropionyl)-β-anilino-L-aspartic acid and the corresponding α-sodium salt] registered an IC50 against enkephalinase of 13 nM. Consider `O=C(O)CC[C@H](NC(=O)C(CS)Cc1ccccc1)C(=O)Nc1cnccn1` (stereo partly drawn) [3(9), N-(3-mercapto-2RS-benzylpropionyl)-L-glutamic acid α-(pyrazin-2-yl) amide], for which, on enkephalinase, the IC50 was 190 nM. In turn, `O=C(C[C@H](NC(=O)C(CS)Cc1ccccc1)C(=O)O)Nc1ccc(I)cc1` (stereo partly drawn) [12(5), N-(3-mercapto-2RS-benzylpropionyl)-β-(4-iodoanilino)-L-aspartic acid] yielded an IC50 on enkephalinase of 2.8 nM. In addition, in series [1], the “Number of rats which did not show the biting-like response, 10 minutes after i.p.” value stood at 4; the “Number of rats which did not show the biting-like response, 40 minutes after i.p.” value was 2; the “Number of rats which did not show the biting-like response, 70 minutes after i.p.” value came to 1; the “Number of rats which did not show the biting-like response, 100 minutes after i.p.” value is reported as 0.
